Test results taken from patent US20030134401A1, “Process for the stereoselective preparation of functionalized vicinal diols” (priority 2001, published 2003).

Experiments:
whole cell R. glutinis = assay: Hydrolysis of epoxy nitriles by whole resting cells of Rhodotorula glutinis; format: cell-based, Rhodotorula glutinis CBS 8761; settings: 50 mM potassium phosphate buffer pH 7.5, 35-37° C., 10 mM epoxide
Procedure: The racemic resolution of the epoxy nitriles was performed with 24 g/L (dry weight) of whole resting cells of Rhodotorula glutinis CBS 8761 in an aqueous solution of 50 mM potassium phosphate buffer at pH 7.5, 35-37° C. The starting epoxide concentration used was 10 mM. After 150 minutes the resolution was stopped by centrifugation and separation of the supernatant liquid and enantiopure epoxide (>99% ee, GC-analysis) could be obtained with 50% conversion (100% of the theoretical yield).
Determination of reaction and extraction progress as well as enantiomeric excess were performed by gas chromatography (GC) using fused silica cyclodextrin capillary column (FS-CYCLODEX alpha-I/P 50 m length, 0.32 mm ID, Chromatography Service GmbH) on an Hewlett-Packard 6890 gas chromatograph equipped with FID detector and using H2 as carrier gas at 120° C. and 0.6 bar pressure.
Examples 12 and 13 were carried out analogously to examples 8 and 10 using 2-cyano-3,3-dimethyl-oxirane as substrate.

Eph1 = assay: Hydrolysis of epoxy nitriles by cell free extract of recombinant E. coli BL21(DE3)[pEph1]; format: biochemical, Rhodotorula glutinis; settings: 50 mM potassium phosphate buffer pH 7.5, 35-37° C., 10 mM epoxide
Procedure: Cell extracts (from cell suspensions prepared according to examples 9, 10 and 11) were prepared by sonication (5 minutes, duty cycle 30%, output control 3) using a Branson sonifier 250. To separate the cell extracts in a soluble and an insoluble fraction the disrupted cells in KPi-buffer were centrifuged for 10 minutes at 4° C. and 20,000×g. The supernatant, containing the soluble proteins, was called the S-fraction. The pellet, containing the insoluble proteins and cell debris, was resuspended in an equal volume of KPi-buffer and referred to as the P-fraction.
The racemic resolution of the epoxy nitrile was performed with the cell free extracts of E. coli BL21(DE3)[pEph1] containing 48 mg protein/L in an aqueous solution of 50 mM potassium phosphate buffer at pH 7.5, 35-37° C. The starting epoxide concentration used was 10 mM. After 150 minutes the resolution was stopped by short and rapid heating to 80° C. and enantiopure epoxide (>99% ee, GC-analysis) could be obtained with 50% conversion (100% of the theoretical yield). […]

Row | SMILES | activity [U/g (dry weight)] whole cell R. glutinis (whole cell R. glutinis) | activity [U/g (protein)] cell free extract E. coli (Eph1)
1 | N#CC1OC12CCCCC2 (racemic) [1-oxa-spiro[2.5]octane-2-carbonitrile] | 6 (example 14) U/g (dry weight) | 3000 (example 16) U/g (protein)
2 | CC1(C)OC1C#N (stereo not shown) [2-cyano-3,3-dimethyl-oxirane] | 3 (example 18) U/g (dry weight) | 300 (example 19) U/g (protein)
